We go through 21 compounds from PubChem BioAssay (NCI).

Some test systems named below: KM12 colon; SNB-19 CNS; A549 NSCLC; SW-620 colon; ACHN renal; CAKI-1 renal; LXFL 529 NSCLC; EKVX NSCLC; MDA-N; HS 578T breast.
Experiment in all cases: NCI-60 cell line screen, 48 h

“And” between values parts separate entries of the source, which are not always exact repeats. Identical values can stand only once.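 Each compound was tested at five concentrations against cells in 96-well plates for 48 hours. GI50 marks 50% less growth. TGI is the concentration that stops growth completely.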

In the case of `CC(=O)O[C@H]1C=CC23OC(=O)[C@]1(C)[C@H]2[C@H](C(=O)O)C12CC(=O)[C@@](CO)(CC[C@H]13)C2`, the TGI with KM12 colon, in the experiment with SNB-19 CNS, in the experiment with A549 NSCLC, in the experiment on SW-620 colon, in the experiment with ACHN renal and in the experiment with CAKI-1 renal was greater than 100 µM in each case. Further, the TGI in the experiment on LXFL 529 NSCLC and with EKVX NSCLC was greater than 100 µM in each case.
As to `O=C(/C(=C/c1ccccc1)c1ccccc1)N1c2ccccc2CC1c1c[nH]c2ccccc12` (configuration not stated), the TGI in the experiment with KM12 colon, in the experiment on SNB-19 CNS, in the experiment with A549 NSCLC, in the experiment with SW-620 colon, in the experiment on ACHN renal and in the experiment with CAKI-1 renal was greater than 100 µM throughout. Moreover, the TGI in the experiment with LXFL 529 NSCLC and in the experiment with EKVX NSCLC was greater than 100 µM in each case.
On to `C#CCN(C)C(=O)N(CC#C)N=O`, for which the TGI in the experiment with KM12 colon, in the experiment on SNB-19 CNS, with A549 NSCLC, in the experiment on SW-620 colon, with ACHN renal and with LXFL 529 NSCLC was greater than 100 µM in each case. The compound further yielded a TGI in the experiment on EKVX NSCLC greater than 100 µM.
Turning to `COC(=O)C1CC(C(=O)OC)c2nc3cc(C)c(C)cc3nc21` (configuration not stated), the TGI in the experiment with KM12 colon, with SNB-19 CNS, with A549 NSCLC, in the experiment on SW-620 colon, in the experiment on ACHN renal and in the experiment with CAKI-1 renal was greater than 100 µM throughout. For the same compound, the TGI with LXFL 529 NSCLC and with EKVX NSCLC was greater than 100 µM throughout.
`C[N+](C)(C)CC1CCCC/C1=N\O` (configuration not stated): the TGI with KM12 colon, in the experiment with SNB-19 CNS, with A549 NSCLC, in the experiment with SW-620 colon, with ACHN renal and with LXFL 529 NSCLC was greater than 100 µM throughout. In the experiment on EKVX NSCLC, this compound returned a TGI greater than 100 µM.
On to `C[n+]1c(N)n(C(=O)OCc2ccccc2)c(=O)c2c1ncn2C(=O)OCc1ccccc1`, for which the TGI in the experiment on KM12 colon, with SNB-19 CNS, in the experiment on A549 NSCLC, with SW-620 colon, in the experiment on ACHN renal and with CAKI-1 renal was greater than 100 µM in each case. Also, the TGI in the experiment with LXFL 529 NSCLC and with EKVX NSCLC was greater than 100 µM throughout.
Consider `Cn1ccnc1C[N-]Cc1nccn1C.O=[N+]([O-])[O-].O=[N+]([O-])[O-].[Cu+2]`, for which the GI50 with KM12 colon, in the experiment on SNB-19 CNS, in the experiment on A549 NSCLC, in the experiment on SW-620 colon, in the experiment with LXFL 529 NSCLC and in the experiment on EKVX NSCLC was greater than 100 µM throughout. Besides, the TGI in the experiment with KM12 colon, with SNB-19 CNS, in the experiment with A549 NSCLC, in the experiment on SW-620 colon, with LXFL 529 NSCLC and in the experiment on EKVX NSCLC was greater than 100 µM in each case.
In the case of `CN(C)CCNc1nc(-c2cccs2)cc(-c2cccs2)n1`, the TGI amounted to 28.5 µM in the experiment on KM12 colon, 32.4 µM in the experiment on A549 NSCLC, 29.1 µM with SW-620 colon and 28.1 µM in the experiment with LXFL 529 NSCLC.
For the compound `COc1ccc(C2=NOP(c3ccccc3)(c3ccccc3)(c3ccccc3)C2)cc1`, the TGI was greater than 100 µM with KM12 colon; greater than 100 µM in the experiment on SNB-19 CNS; greater than 76.1 µM in the experiment on A549 NSCLC; greater than 56.2 µM in the experiment with SW-620 colon; greater than 100 µM in the experiment with ACHN renal; greater than 64 µM in the experiment on CAKI-1 renal. Also, the TGI with LXFL 529 NSCLC is greater than 56.7 µM; in the experiment on EKVX NSCLC, greater than 100 µM.
With `Cc1ccc(NC(=O)CCC(=O)C(C#N)c2ccccc2)cc1C` (configuration not stated), the TGI with KM12 colon, in the experiment with SNB-19 CNS, in the experiment on A549 NSCLC, in the experiment on SW-620 colon, with ACHN renal and in the experiment with CAKI-1 renal was greater than 100 µM throughout. Besides, the TGI with LXFL 529 NSCLC and with EKVX NSCLC was greater than 100 µM in each case.
In the case of `CCOC(=O)/N=c1/nc(N(C)C)ss1`, the TGI with KM12 colon, in the experiment on SNB-19 CNS, with A549 NSCLC, in the experiment on SW-620 colon, in the experiment on ACHN renal and with CAKI-1 renal was greater than 100 µM in each case. The TGI with LXFL 529 NSCLC and with EKVX NSCLC was greater than 100 µM each time.
Consider `NCP(=O)(O)OCC(=O)O`, for which the TGI with KM12 colon, in the experiment on SNB-19 CNS, in the experiment on A549 NSCLC, with SW-620 colon, with ACHN renal and in the experiment with CAKI-1 renal was greater than 100 µM in each case. Moreover, the TGI with LXFL 529 NSCLC and in the experiment on EKVX NSCLC was greater than 100 µM in each case.
Turning to `Nc1ccc(C(=O)N/C(=C\c2cccc([N+](=O)[O-])c2)c2nc3c4c(ccc3[nH]2)C(=O)c2ccccc2C4=O)cc1`, the TGI in the experiment on SNB-19 CNS, in the experiment with A549 NSCLC, in the experiment with SW-620 colon, in the experiment with CAKI-1 renal, in the experiment on LXFL 529 NSCLC and in the experiment on EKVX NSCLC was greater than 100 µM in each case.
As for `N#Cc1c2c(c(-c3cccs3)n(C3OC(CO)C(O)C(O)C3O)c1=S)CCc1ccccc1-2` (configuration not stated), the TGI with KM12 colon, in the experiment with SNB-19 CNS, with A549 NSCLC, in the experiment on SW-620 colon, with ACHN renal and in the experiment on CAKI-1 renal was greater than 100 µM each time. Besides, the TGI in the experiment on MDA-N, with EKVX NSCLC and in the experiment on HS 578T breast was greater than 100 µM in each case. The GI50 in the experiment on A549 NSCLC is 20.9 µM and > 85.1 µM; in the experiment with ACHN renal, 13.8 µM and > 92.2 µM.
On to `CCOC(=O)NC(=O)c1c[nH]c(=O)[nH]c1=O`, for which the TGI in the experiment with KM12 colon, in the experiment on SNB-19 CNS, in the experiment with A549 NSCLC, in the experiment with SW-620 colon, in the experiment on ACHN renal and with CAKI-1 renal was greater than 100 µM throughout. Also, the TGI in the experiment with LXFL 529 NSCLC and in the experiment on EKVX NSCLC was greater than 100 µM each time.
As to `CN(C)CC1CCCC/C1=N/OC(=O)c1ccc(Cl)c(Cl)c1` (configuration not stated), the TGI with KM12 colon, in the experiment on A549 NSCLC, with SW-620 colon, in the experiment on ACHN renal, in the experiment with CAKI-1 renal and in the experiment on LXFL 529 NSCLC was greater than 100 µM throughout. In the experiment with EKVX NSCLC, this compound returned a TGI greater than 100 µM.
`COc1cc(C2c3cc4c(cc3[C@@H](Nc3ccc(N)cc3)C3COC(=O)[C@H]23)OCO4)cc(OC)c1O` (some centres not stated): the TGI with KM12 colon was 14.3 µM; with SNB-19 CNS, 17.3 µM; in the experiment with A549 NSCLC it was 3.46 µM; in the experiment with SW-620 colon, 24.5 µM; with ACHN renal, 6.05 µM; in the experiment with CAKI-1 renal it was 0.903 µM and 5.93 µM. Moreover, the values for the TGI in the experiment on MDA-N, with LXFL 529 NSCLC and with EKVX NSCLC were 18.4 µM, 31 µM and 10.9 µM, respectively. For the same compound, the GI50 is 0.555 µM with SNB-19 CNS; 0.317 µM in the experiment with A549 NSCLC; 0.823 µM in the experiment with SW-620 colon; 0.345 µM in the experiment on ACHN renal; 0.326 µM in the experiment with CAKI-1 renal; 0.953 µM with EKVX NSCLC.
Regarding `Nc1nc(N)c(-c2ccccc2)c(CCC(=O)Nc2ccc(Cl)cc2)n1`, the TGI with KM12 colon, in the experiment on SNB-19 CNS, in the experiment with A549 NSCLC, in the experiment with SW-620 colon, in the experiment with ACHN renal and in the experiment on CAKI-1 renal was greater than 100 µM each time. Moreover, the TGI in the experiment on LXFL 529 NSCLC and with EKVX NSCLC was greater than 100 µM in each case.
With `CC1=C(C(=O)Nc2ccccc2)C(c2ccc(C(C)C)cc2)C(C(=O)Nc2ccccc2)=C(C)N1`, the TGI is 77.8 µM with KM12 colon; greater than 100 µM with SNB-19 CNS; greater than 100 µM with A549 NSCLC; 41.5 µM in the experiment with SW-620 colon; greater than 66.9 µM in the experiment on ACHN renal; greater than 100 µM in the experiment on CAKI-1 renal. Further, the TGI in the experiment with LXFL 529 NSCLC was greater than 67.7 µM; in the experiment on EKVX NSCLC, greater than 88 µM.
With `CC(C)(C)OC(=O)N1N=NC2C3OC(CC3=O)C21` (configuration not stated), the TGI in the experiment on SNB-19 CNS, in the experiment on A549 NSCLC, in the experiment on SW-620 colon, in the experiment on ACHN renal, in the experiment on CAKI-1 renal and with LXFL 529 NSCLC was greater than 100 µM each time. The same compound had a TGI in the experiment with EKVX NSCLC greater than 100 µM.
With `COc1ccc(C(=O)O/N=C2/CCC/C2=C\c2ccccc2)cc1`, the TGI in the experiment on KM12 colon, with SNB-19 CNS, with A549 NSCLC, with SW-620 colon, in the experiment with ACHN renal and in the experiment on CAKI-1 renal was greater than 100 µM in each case. In addition, the TGI in the experiment with LXFL 529 NSCLC and with EKVX NSCLC was greater than 100 µM throughout.
